Measured values: patent US4816477A, “Antihypercholesterolemic β-lactones” (Merck & Co., Inc., priority 1987, dated 1989)

Target: T1, HMG-CoA synthase (Rattus norvegicus, UniProt P17425)
T1 construct: The livers from male Charles River CD rats (225-350 g) were homogenized in 0.25 M sucrose; from tissue; host or cells: rat liver (male Charles River CD rats), 100,000×g supernatant, ammonium sulfate precipitate, DEAE-52 fraction
T1 sequence (P17425 1-520): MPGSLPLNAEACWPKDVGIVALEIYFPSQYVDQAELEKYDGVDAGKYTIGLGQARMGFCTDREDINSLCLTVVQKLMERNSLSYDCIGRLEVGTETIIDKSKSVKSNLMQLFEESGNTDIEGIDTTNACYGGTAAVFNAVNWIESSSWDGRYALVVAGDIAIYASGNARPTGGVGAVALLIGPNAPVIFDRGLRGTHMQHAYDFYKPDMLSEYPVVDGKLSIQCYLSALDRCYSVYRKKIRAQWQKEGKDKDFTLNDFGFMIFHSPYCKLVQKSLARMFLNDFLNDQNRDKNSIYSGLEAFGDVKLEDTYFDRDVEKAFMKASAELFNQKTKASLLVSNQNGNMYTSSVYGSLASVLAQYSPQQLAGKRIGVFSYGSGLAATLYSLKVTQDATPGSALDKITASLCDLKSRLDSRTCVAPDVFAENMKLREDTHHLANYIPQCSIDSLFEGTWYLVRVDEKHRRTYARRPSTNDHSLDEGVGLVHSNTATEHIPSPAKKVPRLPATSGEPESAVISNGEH
Assay: HMG-CoA Synthase Inhibition Assay
Assay type: biochemical
Settings: for IC50: in vitro, enzyme from rat liver
Experimental: The intrinsic HMG-CoA synthase inhibition activity of the compounds of this invention is measured by the standard in vitro protocol described below:
The livers from male Charles River CD rats (225-350 g) were homogenized in 0.25 M sucrose which was adjusted with phenylmethylsulfonylfluoride (PMSF) and N-p-tosyl-1-lysine chloromethyl ketone (TLCK) so that the final concentration of each was […], respectively. The homogenate was centrifuged at 15,000×g for 20 minutes, the supernatant filtered through a fine nylon screen to remove most of the fat layer and recentrifuged at 100,000×g for 1 hour. This supernatant was removed and 1 M potassium phosphate, dithiothreitol (DTT) and ethylene glycol-bis(β-aminoethyl ether)-N,N,N',N'-tetraacetic acid (EGTA) added to give a final concentration of 0.1 M (pH 7.2), 0.5 mM and 0.1 mM, respectively. Solid ammonium sulfate was added to 50% saturation to the protein solution, it was centrifuged at 15,000×g and the supernatant discarded. This precipitated protein could be stored at -70° C. for at least one month with very little loss of activity. The ammonium sulfate precipitate was dissolved in an minimal amount of 0.06 M potassium phosphate buffer (pH 7.2) containing 0.5 mM dithiothreitol and 0.1 mM EGTA (referred to as 0.06 M phosphate buffer) and dialyzed overnight against 2 liters of the same buffer to remove the ammonium sulfate and to inactivate HMG-CoA lyase [Clinkenbeard, et al., J. Biol. Chem. 250, 3108-3116(1975)].
The dialyzed extract was added to a column of DEAE-52 (Whatman) which had been equilibrated with 0.06 M phosphate buffer (10 mg of protein to 1 ml bed volume of the resin). The DEAE-cellulose was eluted with 0.06 M phosphate buffer until the optical density at 280 nm was essentially zero. This fraction contained the β-ketoacetyl-CoA thiolase activity. The HMG-CoA synthase was eluted from the column with 0.1 M phosphate buffer (pH 7.2) containing 0.5 mM DTT and 0.1 mM EGTA, and was virtually free of all thiolase activity. The protein was precipitated by the addition of ammonium sulfate to give 50% saturation. This solution was stirred for 10 minutes at 4° C. and the precipitate collected by centrifugation at 15,000 rpm for 10 minutes. The supernatant was discarded and the precipitate dissolved in a minimum of 0.06 M phosphate buffer, pH 7.2 (about 10 ml) and the enzyme stored at -80° C.
HMG-CoA Synthase Inhibition Assay
Enzyme protein (ca. […]) was added to a solution containing 117 mM Tris-HCl (pH 8.0), 11.7 mM MgCl2, 1.17 mM ethylenediaminetetraacetic acid (EDTA), 0.58 mM dithiothreitol, and the indicated concentrations of the test compound (added as a 2 mg/ml solution in dimethylsulfoxide). The incubation took place in a volume of 0.085 ml at 30° in a shaking water bath. After 5 minutes, […] of a solution containing acetoacetyl-CoA and 0.1 μCi of 1-[^14 C]-acetyl-CoA was added to give a final concentrations of 0.1 and 0.4 μM, respectively. The incubation was continued for 10 more minutes and the reaction stopped by the addition of […] of the assay mixture to 0.2 ml of 6N HCl in a glass scintillation vial. The vial was heated for 1 hour at 120° after which time 0.2 ml more of 6N HCl was again added to each vial and the heating continued for another hour. Following this, 1.0 ml of 0.9% saline was added to each vial and finally 10 ml of scintillation liquid. Radioactivity was determined in a Packard Tri-Carb liquid scintillation counter. Percent inhibition is calculated by the formula: [formula] IC50 values were determined by plotting the log of the concentration of the test compound verses the percentage inhibition and fitting a straight line to the resulting data by using the least squares method.

COC(=O)/C=C(C)/C=C(\C)CC(C)CCCCC1OC(=O)C1CC#N (stereo not shown) [R^1=OCH3, R^2=CN, methyl 11-(3-cyanomethyl-4-oxo-2-oxetano)-3,5,7-trimethyl-2,4-undecadienoate]
IC50: 2900 nM

COC(=O)/C=C(C)/C=C(\C)CC(C)CCCCC1OC(=O)C1C (stereo not shown) [R^1=OCH3, R^2=H, methyl 11-(3-methyl-4-oxo-2-oxetano)-3,5,7-trimethyl-2,4-undecadienoate]
inhibition at 6 µM (at 6 × 10^-6 M, read-out: percent inhibition): 22.7%
IC25 (concentration giving 22.7 percent inhibition, read-out: IC25 (printed in the IC50 column, in parentheses)): 6000 nM

COC(=O)/C=C(C)/C=C(\C)CC(C)CCCCC1OC(=O)C1CN=[N+]=[N-] (stereo not shown) [R^1=OCH3, R^2=N3, methyl 11-(3-azidomethyl-4-oxo-2-oxetano)-3,5,7-trimethyl-2,4-undecadienoate]
IC50: 100 nM

COC(=O)/C=C(C)/C=C(\C)CC(C)CCCCC1OC(=O)C1CSC(C)=O (stereo not shown) [R^1=OCH3, R^2=drawing 3, methyl 11-(3-acetylthiomethyl-4-oxo-2-oxetano)-3,5,7-trimethyl-2,4-undecadienoate]
inhibition at 10 µM (at 10^-5 M, read-out: percent inhibition): 47.9%
IC50: 10000 nM

CC(=C\C(=O)O)/C=C(\C)CC(C)CCCCC1OC(=O)C1CBr (stereo not shown) [R^1=OH, R^2=Br, 11-(3-bromomethyl-4-oxo-2-oxetano)-3,5,7-trimethyl-2,4-undecadienoic acid]
IC50: 1400 nM

CC(=C\C(=O)O)/C=C(\C)CC(C)CCCCC1OC(=O)C1CCl (stereo not shown) [R^1=OH, R^2=Cl, 11-(3-Chloromethyl-4-oxo-2-oxetano)-3,5,7-trimethyl-2,4-undecadienoic acid]
IC50: 300 nM

CC(=C\C(=O)O)/C=C(\C)CC(C)CCCCC1OC(=O)C1CF (stereo not shown) [R^1=OH, R^2=F, 11-(3-fluoromethyl-4-oxo-2-oxetano)-3,5,7,-trimethyl-2,4-undecadienoic acid]
IC50: 280 nM

CC(=C\C(=O)O)/C=C(\C)CC(C)CCCCC1OC(=O)C1C (stereo not shown) [R^1=OH, R^2=H, 11-(3-methyl-4-oxo-2-oxetano)-3,5,7-trimethyl-2,4-undecadienoic acid]
IC50: 100 nM
